Measured values taken from patent US20250074906A1, “AZAINDOLE DERIVATIVE THAT INHIBITS H-PGDS” (SATO PHARMACEUTICAL CO., LTD., priority 2021, published 2025).

These molecules were tested against T1, Recombinant human H-PGDS (Homo sapiens, UniProt O60760) (assay: H-PGDS inhibitory activity (prostaglandin D2 production measured by LC-MS/MS)). Conditions: recombinant human H-PGDS 1.0 nM expressed in E. coli; prostaglandin H2 25 μM; 15 min preincubation and 1 min reaction on ice.
T1 construct: made in house; host or cells: E. coli
T1 sequence (O60760 whole entry): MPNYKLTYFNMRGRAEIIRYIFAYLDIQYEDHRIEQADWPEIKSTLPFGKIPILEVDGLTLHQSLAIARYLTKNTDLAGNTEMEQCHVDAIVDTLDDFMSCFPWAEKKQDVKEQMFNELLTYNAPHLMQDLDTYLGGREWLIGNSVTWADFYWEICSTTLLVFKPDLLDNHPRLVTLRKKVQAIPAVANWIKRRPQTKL
Assay type: biochemical
Procedure: The H-PGDS inhibitory activity of each Example compound was measured according to the method described in WO 2007/041634.
Recombinant human H-PGDS (final concentration: 1.0 nM) expressed in E. coli was mixed in an assay buffer containing 20 mM Tris-HCl (pH 8.0), 2 mM magnesium chloride, 2 mM reduced glutathione, and 0.5 mg/mL γ-globulin, and 150 μL of the mixture was dispensed into an 8-strip PCR tube (BM Equipment Co., Ltd). Test compounds (Example compounds) (16.5 μL) at various concentrations dissolved in DMSO were added and the mixture was preincubated for 15 minutes on ice.
Prostaglandin H2 (final concentration: 25 μM) (Cayman Chemical) was dispensed into another 8-strip PCR tube, and the solvent was dried and solidified using a vacuum concentrator (Thermo Fisher Scientific). To the dried and solidified prostaglandin H2 was added 50 μL of the assay buffer containing H-PGDS and each test compound after the preincubation, and the mixture was reacted on ice for 1 minute. 40 μL of this mixture was added to 40 μL of a stop solution (50 mM aqueous citric acid solution containing iron chloride at a final concentration of 4 mg/mL) to stop the reaction. Then, the reaction solution was deproteinized, added to a 96 square deep well plate (SHONANMARUHACHI STEC Co., Ltd.), and the prostaglandin D2 concentration in the reaction solution was measured by LC-MS/MS. ACQUITY (registered trademark) TQD (Waters) was used as a measuring instrument.
Prostaglandin D2 production activity (%) in the group with each test compound when a value obtained by subtracting the amount of production of prostaglandin D2 in the group without enzyme, which is non-specific production of prostaglandin D2, from the amount of production of prostaglandin D2 in the group without test compound (DMSO-addition group) in each 8-strip PCR tube is 100% was calculated. From the calculated activity value, the test compound concentration that inhibits prostaglandin D2 production by 50% (IC50) was determined.

SMILES	IC50
O=C(NC12CCC(O)(CC1)CC2)c1ccc(-c2nccc3[nH]ccc23)c(F)c1 [Example 6, 3-fluoro-N-(4-hydroxybicyclo[2.2.2]octan-1-yl)-4-(1H-pyrrolo[3,2-c]pyridin-4-yl)benzamide]	1.1 nM
O=C(NC12CCC(O)(CC1)C2)c1ccc(-c2nccc3[nH]ccc23)c(F)c1 [Example 10, 3-fluoro-N-(4-hydroxybicyclo[2.2.1]heptan-1-yl)-4-(1H-pyrrolo[3,2-c]pyridin-4-yl)benzamide]	1 nM
O=C(NC12CCC(O)(CC1)CC2)c1ccc(-c2ncc(Cl)c3[nH]ccc23)cc1 [Example 17, 4-(7-chloro-1H-pyrrolo[3,2-c]pyridin-4-yl)-N-(4-hydroxybicyclo[2.2.2]octan-1-yl)benzamide]	0.69 nM
Cc1cnc(-c2ccc(C(=O)N[C@H]3CC[C@H](C4(O)CC4)CC3)cc2)c2cc[nH]c12 [Example 3, N-[trans-4-(1-hydroxycyclopropyl)cyclohexyl]-4-(7-methyl-1H-pyrrolo[3,2-c]pyridin-4-yl)benzamide]	1.9 nM
O=C(NC12CCC(O)(CC1)CC2)c1ccc(-c2ncc(F)c3[nH]ccc23)cc1 [Example 16, 4-(7-fluoro-1H-pyrrolo[3,2-c]pyridin-4-yl)-N-(4-hydroxybicyclo[2.2.2]octan-1-yl)benzamide]	0.99 nM
NC(=O)C12CCC(NC(=O)c3ccc(-c4nccc5[nH]ccc45)c(F)c3)(CC1)CC2 [Example 8, 4-[3-fluoro-4-(1H-pyrrolo[3,2-c]pyridin-4-yl)benzamide]bicyclo[2.2.2]octane-1-carboxamide]	0.75 nM
N#CC12CCC(NC(=O)c3ccc(-c4nccc5[nH]ccc45)c(F)c3)(CC1)CC2 [Example 7, N-(4-cyanobicyclo[2.2.2]octan-1-yl)-3-fluoro-4-(1H-pyrrolo[3,2-c]pyridin-4-yl)benzamide]	1.3 nM
C[C@]1(O)CC[C@H](NC(=O)c2ccc(-c3nccc4[nH]ccc34)c(F)c2)CC1 [Example 5, 3-fluoro-N-(trans-4-hydroxy-4-methylcyclohexyl)-4-(1H-pyrrolo[3,2-c]pyridin-4-yl)benzamide]	1 nM

Continued, values first:

IC50	SMILES
1 nM	C[C@]1(O)CC[C@@H](NC(=O)c2ccc(-c3ncc(Cl)c4[nH]ccc34)cc2)CC1 [Example 31, 4-(7-chloro-1H-pyrrolo[3,2-c]pyridin-4-yl)-N-(cis-4-hydroxy-4-methylcyclohexyl)benzamide]
2.3 nM	NC(=O)[C@H]1CC[C@H](NC(=O)c2ccc(-c3ncc(F)c4[nH]ccc34)cc2)CC1 [Example 27, N-(trans-4-carbamoylcyclohexyl)-4-(7-fluoro-1H-pyrrolo[3,2-c]pyridin-4-yl)benzamide]
2.8 nM	CC(C)(O)[C@H]1CC[C@H](NC(=O)c2ccc(-c3ncc(C(F)F)c4[nH]ccc34)cc2)CC1 [Example 18, 4-[7-(difluoromethyl)-1H-pyrrolo[3,2-c]pyridin-4-yl]-N-[trans-4-(2-hydroxypropan-2-yl)cyclohexyl]benzamide]
1.4 nM	O=C(NC12CCC(O)(CC1)C2)c1ccc(-c2ncc(F)c3[nH]ccc23)cc1 [Example 19, 4-(7-fluoro-1H-pyrrolo[3,2-c]pyridin-4-yl)-N-(4-hydroxybicyclo[2.2.1]heptan-1-yl)benzamide]
0.78 nM	CC(C)(O)[C@H]1CC[C@H](NC(=O)c2ccc(-c3nccc4[nH]ncc34)c(F)c2)CC1 [Example 49, 3-fluoro-N-[trans-4-(2-hydroxypropan-2-yl)cyclohexyl]-4-(1H-pyrazolo[4,3-c]pyridin-4-yl)benzamide]
0.92 nM	O=C(N[C@H]1CC[C@@H](O)CC1)c1ccc(-c2ncc(F)c3[nH]ccc23)c(F)c1 [Example 42, 3-fluoro-4-(7-fluoro-1H-pyrrolo[3,2-c]pyridin-4-yl)-N-(cis-4-hydroxycyclohexyl)benzamide]
1.3 nM	N#C[C@H]1CC[C@H](NC(=O)c2ccc(-c3ncc(F)c4[nH]ccc34)cc2)CC1 [Example 26, N-(trans-4-cyanocyclohexyl)-4-(7-fluoro-1H-pyrrolo[3,2-c]pyridin-4-yl)benzamide]
0.68 nM	O=C(N[C@H]1CC[C@H](O)CC1)c1ccc(-c2ncc(Cl)c3[nH]ccc23)cc1 [Example 30, 4-(7-chloro-1H-pyrrolo[3,2-c]pyridin-4-yl)-N-(trans-4-hydroxycyclohexyl)benzamide]
1.1 nM	C[C@]1(O)CC[C@@H](NC(=O)c2ccc(-c3ncc(F)c4[nH]ccc34)c(F)c2)CC1 [Example 40, 3-fluoro-4-(7-fluoro-1H-pyrrolo[3,2-c]pyridin-4-yl)-N-(cis-4-hydroxy-4-methylcyclohexyl)benzamide]
